Experimental data from PubChem BioAssay (NCI).
“And” between values parts separate entries of the source, which are not always exact repeats. Identical values can stand only once.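 Step 1: Grow cells in 96-well plates. Step 2: Expose to compound for 48 hours at 5 concentrations. Step 3: Interpolate endpoints linearly; if unreached, use highest concentration. GI50 marks 50% less growth. TGI is the concentration that stops growth completely.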

How the values were obtained:
Experiment in all cases: NCI anticancer screen, dose series, 48 h
[1] = test system: 786-0 renal
[2] = test system: MDA-MB-435
[3] = test system: NCI-H522 lung
[4] = test system: RXF 393 renal
[5] = test system: SF-268 CNS
[6] = test system: SF-539 CNS
[7] = test system: SK-OV-3 ovarian
[8] = test system: SR leukemia
[9] = test system: TK-10 renal
[10] = test system: UACC-257 melanoma

Row | SMILES | GI50 [1] [µM] | TGI [1] | GI50 [2] [µM] | TGI [2] [µM] | GI50 [3] [µM] | TGI [3] | GI50 [4] [µM] | TGI [4] [µM] | GI50 [5] [µM] | TGI [5] | GI50 [6] [µM] | TGI [6] | GI50 [7] [µM] | TGI [7] [µM] | GI50 [8] [µM] | TGI [8] | GI50 [9] [µM] | TGI [9] [µM] | GI50 [10] [µM] | TGI [10] [µM]
1 | CC1(C)C(=O)/C(=C\c2ccco2)C[C@]2(C)[C@H]3CC=C4[C@@H]5C[C@](C)(C(=O)O)CC[C@]5(C)CC[C@@]4(C)[C@]3(C)CC[C@@H]12 | 9.51 | 25 µM | 12.1 | 30.3 | 9.26 | 25.6 µM | 10.7 | 22.7 | 12.1 | 28.2 µM | 13.2 | 27.3 µM | 14.4 | 29.3 | 9.85 | > 100 µM | 13.1 | 36.7 | 12.5 | 38.9
2 | C=C1C(O)C2C(=C(CC(C)C)C13CC3)C(=O)C(C)(C)C2OC (centres undefined) | > 100 | > 100 µM | > 100 | > 100 | > 100 | > 100 µM | > 100 | > 100 | > 100 | > 100 µM | > 100 | > 100 µM | > 100 | > 100 | 82.9 | > 100 µM | > 100 | > 100 | > 100 | > 100
3 | O=C(O)c1nnsc1COCc1ccccc1 | – | > 100 µM | – | > 100 | – | > 100 µM | – | > 100 | – | > 100 µM | – | > 100 µM | – | > 100 | – | > 100 µM | – | > 100 | – | > 100
4 | O=S(=O)(O)c1ccc2cc(N=Nc3cc(S(=O)(=O)O)c4cccnc4c3O)ccc2c1 | – | > 100 µM | – | > 100 | – | > 100 µM | – | > 100 | – | > 100 µM | – | > 100 µM | – | > 100 | – | > 100 µM | – | > 100 | – | > 100
5 | O=Nc1c2cccnc2n2nnc3ccc(Cl)cc3c12 | 1.25 | 6.11 µM | 2.65 | 7.99 | 1.14 | 3.38 µM | 0.65 | 1.64 | 1.8 | 9.4 µM | 3.68 | 10.5 µM | 5.37 | 20.4 | 0.0458 | 2.99 µM | 1.66 | 7.6 | 5.87 | 23.3
6 | OC1CCC(C2C3CCCCC3C3CCCCC3C2C2CCC(O)CC2)CC1 (centres undefined) | – | > 100 µM | – | 24.6 | – | 6.37 µM | – | 7.06 | – | 14.5 µM | – | 75.5 µM | – | 31 | – | > 100 µM | – | 34.9 | – | 33.4
7 | COc1ccc(N=Cc2ccc(N(CCC#N)CCC#N)cc2)cc1 | – | > 100 µM | – | > 100 | – | > 100 µM | – | > 100 | – | > 100 µM | – | 78.7 µM | – | > 100 | – | > 100 µM | – | > 89 | – | > 100
8 | CN(C)CCNc1cccc2sc3ccc(O)cc3c(=O)c12 | 2.23 | 6.28 µM | 1.49 | 3.16 | 1.77 | 5.66 µM | 1.95 | 7.38 | 3.18 | 14.6 µM | 1.77 | 4.01 µM | 3.36 | 14.4 | 1.08 | 4.37 µM | 5.58 | 17.5 | 1.7 | 3.21
9 | C=C(CNCCO)[C@@H]1CC[C@]2(CO)CC[C@]3(C)[C@H](CC[C@@H]4[C@@]5(C)CCC(NCCc6ccc(O)cc6)C(C)(C)[C@@H]5CC[C@]43C)[C@@H]12 (some centres undefined) | 0.202 | 0.523 µM | 1.51 | 2.9 | 1.64 | 3.13 µM | 1.08 | 2.39 | 1.56 | 3.22 µM | 1.52 | 2.91 µM | 1.7 | 3.23 | 0.25 | 0.802 µM | 1.66 | 3.1 | 1.7 | 3.08
10 | N#C/C(=C(\O)C(=O)O)c1ccc(-c2cccc3ccccc23)cc1 | – | > 100 µM | – | > 100 | – | > 100 µM | – | > 100 | – | > 100 µM | – | > 100 µM | – | > 100 | – | > 100 µM | – | > 100 | – | > 100
11 | Cc1ccc2c(c1)sc(-c1ccc(N(C)C)cc1)[n+]2C | 3.69 | > 45.9 µM | 0.879 | 13 | 1.45 | > 100 µM | 9.16 | > 47.4 | 2.44 | 24.9 µM | 2.56 | 14.1 µM | 2.04 | 7.91 | 0.125 | 19.4 µM | 1.99 | 11.2 | 0.657 | 19.9
12 | OCCCNCc1ccccn1 | – | > 100 µM | – | > 100 | – | > 100 µM | – | > 100 | – | > 100 µM | – | > 100 µM | – | > 100 | – | > 100 µM | – | > 100 | – | > 100
13 | CCCCS(=N)(=O)CC[C@H](N)C(=O)O (some centres undefined) | – | 434 µM and > 2460 µM | > 10000 | > 10000 | > 20.5 | 351 µM and 51.9 µM | > 10000 | > 10000 | > 10000 | 5000 µM and > 10000 µM | > 10000 | 5000 µM and > 10000 µM | > 10000 | > 10000 | 3980 | 5000 µM and > 10000 µM | > 10000 | > 10000 | > 10000 | > 10000
